Values quoted from earlier work, collected in patent publication US20210137911A1, “NOVEL CHRONOTHERAPY BASED ON CIRCADIAN RHYTHMS” (THE TRUSTEES OF THE UNIVERSITY OF PENNSYLVANIA, priority 2014, published 2021).
Like-named read-outs stand apart in the source and are kept apart here. Positions of bridges follow the written chain, without caps; N, C: chain ends. Non-standard residues stand in square brackets, D forms with d. Residues, ends and D or L forms follow the SMILES beside them. hArg = N=C(N)NCCCC[C@H](N)C(=O)O; Mpa = O=C(O)CCS

Conditions: cited from earlier work
[1] = half-life of top selling therapeutic compounds (Table 1)
[2] = half-life of therapeutic compound as listed in Table 1

| Structure (SMILES) | ½ Life [1] | other results |
| --- | --- | --- |
| COc1ccc(C[C@@H]2c3cc(OC)c(OC)cc3CC[N@+]2(C)CCC(=O)OCCCCCOC(=O)CC[N@@+]2(C)CCc3cc(OC)c(OC)cc3[C@H]2Cc2ccc(OC)c(OC)c2)cc1OC [Cisatracurium Besylate] | 0.366 h |  |
| Nc1nc(Cl)nc2c1ncn2[C@H]1C[C@H](O)[C@@H](CO)O1 [Cladribine] | 5.4 h |  |
| Nc1nc(Cl)nc2c1ncn2[C@@H]1O[C@H](CO)[C@@H](O)[C@@H]1F [Clofarabine] | 5.2 h |  |
| O=C(O)C1N=C(c2ccccc2)c2cc(Cl)ccc2NC1=O (stereo not drawn) [Clorazepate] | 2 h |  |
| CCc1cc2c(s1)N(C)C(=O)CN=C2c1ccccc1Cl [Clotiazepam] | 4 h |  |
| Clc1ccccc1C(c1ccccc1)(c1ccccc1)n1ccnc1 [Clotrimazole] | 2 h |  |
| COC(=O)[C@H]1[C@@H](OC(=O)c2ccccc2)C[C@@H]2CC[C@H]1N2C [Cocaine] | 1 h |  |
| COc1ccc2c3c1O[C@H]1[C@@H](O)C=C[C@H]4[C@@H](C2)N(C)CC[C@@]341 [Codeine] |  | ½ Life (in vivo): 3 h |
| COc1cc2c(c(OC)c1OC)-c1ccc(OC)c(=O)cc1[C@@H](NC(C)=O)CC2 [Colchicine] | 1 h |  |
| CN(CC(=O)O)C(=N)N [Creatine] | 3 h |  |
| Nc1ccn([C@@H]2O[C@H](CO)[C@@H](O)[C@@H]2O)c(=O)n1 [Cytarabine] |  | ½ Life (in vivo): 0.166 h |
| CN(C)/N=N/c1[nH]cnc1C(N)=O [Dacarbazine] | 5 h |  |
| Nc1ccncc1 [Dalfampridine] |  | ½ Life (in vivo): 3.5 h |
| O=C1CN(/N=C/c2ccc(-c3ccc([N+](=O)[O-])cc3)o2)C(O)=N1 [Dantrolene] | 4 h |  |
| CN(C)[C@@H](CCOc1cccc2ccccc12)c1ccccc1 [Dapoxetine] | 1 h |  |
| Cc1nc(Nc2ncc(C(=O)Nc3c(C)cccc3Cl)s2)cc(N2CCN(CCO)CC2)n1 [Dasatinib] | 3 h |  |
| Nc1ncn([C@H]2C[C@H](O)[C@@H](CO)O2)c(=O)n1 [Decitabine] | 0.51 h |  |
| NC(=O)CC[C@@H]1NC(=O)[C@H](Cc2ccccc2)NC(=O)[C@H](Cc2ccc(O)cc2)NC(=O)CCSSC[C@@H](C(=O)N2CCC[C@H]2C(=O)N[C@H](CCCN=C(N)N)C(=O)NCC(N)=O)NC(=O)[C@H](CC(N)=O)NC1=O [Desmopressin] |  | ½ Life (in vivo): 1 h |
| Cc1cccc([C@H](C)c2cnc[nH]2)c1C [Dexmedetomidine] | 2 h |  |
| COC(=O)[C@H](c1ccccc1)[C@H]1CCCCN1 [Dexmethylphenidate] |  | ½ Life (in vivo): 2 h |
| C[C@@H](CN1CC(=O)NC(=O)C1)N1CC(=O)NC(=O)C1 [Dexrazoxane] | 2.5 h |  |
| COc1ccc2c(c1)[C@]13CCCC[C@@H]1[C@H](C2)N(C)CC3 [Dextromethorphan] | 3 h |  |
| C[C@@]12CCCCC[C@@H](Cc3ccc(O)cc31)[C@@H]2N [Dezocine] |  | ½ Life (in vivo): 2.2 h |
| CN1C(=O)CN=C(c2ccccc2)c2cc(Cl)ccc21 [Diazepam] |  | ½ Life (in vivo): 1 h |
| O=C(O)Cc1ccccc1Nc1c(Cl)cccc1Cl [Diclofenac] |  | ½ Life (in vivo): 2 h |
| CCCCC[C@H](O)/C=C/[C@H]1[C@H](O)CC(=O)[C@@H]1C/C=C\CCCC(=O)O [Dinoprostone] | 0.0833 h |  |

| Structure (SMILES) | ½ Life [1] | other results |
| --- | --- | --- |
| OC(CCCN1CCCCC1)(c1ccccc1)c1ccccc1 [Diphenidol] | 4 h |  |
| OCCN(CCO)c1nc(N2CCCCC2)c2nc(N(CCO)CCO)nc(N3CCCCC3)c2n1 [Dipyridamole] | 0.66 h |  |
| CC(CCc1ccc(O)cc1)NCCc1ccc(O)c(O)c1 (stereo not drawn) [Dobutamine] | 0.033 h |  |
| NCCc1ccc(O)c(O)c1 [Dopamine] | 0.033 h |  |
| CCCCCc1cc(O)c2c(c1)OC(C)(C)[C@@H]1CCC(C)=C[C@@H]21 [Dronabinol] |  | ½ Life (in vivo): 4 h |
| O=C(CCCN1CC=C(n2c(=O)[nH]c3ccccc32)CC1)c1ccc(F)cc1 [Droperidol] | 1.4 h |  |
| N[C@H](C(=O)O)[C@H](O)c1ccc(O)c(O)c1 [Droxidopa] | 2 h |  |
| CC(=O)[C@H]1CC[C@H]2[C@@H]3C=CC4=CC(=O)CC[C@@]4(C)[C@@H]3CC[C@]12C [Dydrogesterone] | 5 h |  |
| Cn1c(=O)c2c(ncn2CC(O)CO)n(C)c1=O (stereo not drawn) [Dyphylline] | 2 h |  |
| CN1CCC[C@@H]1Cc1c[nH]c2ccc(CCS(=O)(=O)c3ccccc3)cc12 [Eletriptan] | 4 h |  |
| CCOC(=O)[C@H](CCc1ccccc1)N[C@@H](C)C(=O)N1CCC[C@H]1C(=O)O [Enalapril, reference compound] | 2 h | minimum reported half-life (see Table 1): 2 h |
| COc1ccc(C(=O)Nc2ccccc2CCC2CCCCN2C)cc1 (stereo not drawn) [Encainide] | 1 h |  |
| CCn1cc(C(=O)O)c(=O)c2cc(F)c(N3CCNCC3)nc21 [Enoxacin] | 3 h |  |
| CSc1ccc(C(=O)c2[nH]c(=O)[nH]c2C)cc1 [Enoximone] | 4 h |  |
| CNC[C@H](O)c1ccc(O)c(O)c1 [Epinephrine] | 0.033 h |  |
| COc1cccc2c1C(=O)c1c(O)c3c(c(O)c1C2=O)C[C@@](O)(C(=O)CO)C[C@@H]3O[C@H]1C[C@H](N)[C@@H](O)[C@H](C)O1 [Epirubicin] | 3 h |  |
| COC(=O)[C@@H]1CC2=CC(=O)CC[C@]2(C)[C@@]23O[C@@H]2C[C@@]2(C)[C@@H](CC[C@@]24CCC(=O)O4)[C@H]13 [Eplerenone] | 4 h |  |
| CCCCc1ncc(/C=C(\Cc2cccs2)C(=O)O)n1Cc1ccc(C(=O)O)cc1 [Eprosartan] | 5 h |  |
| N=C(N)NCCCC[C@@H]1NC(=O)CCSSC[C@@H](C(N)=O)NC(=O)[C@@H]2CCCN2C(=O)[C@H](Cc2c[nH]c3ccccc23)NC(=O)[C@H](CC(=O)O)NC(=O)CNC1=O [Eptifibatide] ([Mpa][hArg]GDWPC-NH2; disulfide 1-7) |  | ½ Life (in vivo): 2.5 h |
| C[C@@H](CO)NC(=O)[C@@H]1C=C2c3cccc4[nH]cc(c34)C[C@H]2N(C)C1 [Ergonovine] | 1 h |  |
| CN1C[C@H](C(=O)N[C@]2(C)O[C@@]3(O)[C@@H]4CCCN4C(=O)[C@H](Cc4ccccc4)N3C2=O)C=C2c3cccc4[nH]cc(c34)C[C@H]21 [Ergotamine] |  | ½ Life (in vivo): 2 h |
| COC(=O)CCc1ccc(OCC(O)CNC(C)C)cc1 (stereo not drawn) [Esmolol] | 2 h |  |
| COc1ccc2nc([S@@+]([O-])Cc3ncc(C)c(OC)c3C)[nH]c2c1 [Esomeprazole] | 1 h |  |
| C#CC1(OC(N)=O)CCCCC1 [Ethinamate] |  | ½ Life (in vivo): 2.5 h |
| CCc1cc(C(N)=S)ccn1 [Ethionamide] | 2 h |  |
| CCN1C(=O)NC(c2ccccc2)C1=O (stereo not drawn) [Ethotoin] | 3 h |  |

| Structure (SMILES) | ½ Life [1] | other results |
| --- | --- | --- |
| CCOc1ccc2nc(S(N)(=O)=O)sc2c1 [Ethoxzolamide] | 2.5 h |  |
| CC(O)(P(=O)(O)O)P(=O)(O)O [Etidronic acid] | 1 h |  |
| COc1cc([C@@H]2c3cc4c(cc3[C@@H](O[C@@H]3O[C@@H]5CO[C@@H](C)O[C@H]5[C@H](O)[C@H]3O)[C@H]3COC(=O)[C@H]23)OCO4)cc(OC)c1O [Etoposide] | 4 h |  |
| CC(C(=O)O)c1cccc(Oc2ccccc2)c1 (stereo not drawn) [Fenoprofen] | 3 h |  |
| CC(C)(C)NC(=O)[C@H]1CC[C@H]2[C@@H]3CC[C@H]4NC(=O)C=C[C@]4(C)[C@H]3CC[C@]12C [Finasteride] | 4.5 h |  |
| Nc1nc(=O)[nH]cc1F [Flucytosine] | 2.4 h |  |
| C[C@]12CCC(=O)C=C1CC[C@H]1[C@@H]3CC[C@](O)(C(=O)CO)[C@@]3(C)C[C@H](O)[C@@]12F [Fludrocortisone] | 3.5 h |  |
| CCOC(=O)c1ncn2c1CN(C)C(=O)c1cc(F)ccc1-2 [Flumazenil] | 4 h |  |
| CC1(C)O[C@@H]2C[C@H]3[C@@H]4C[C@H](F)C5=CC(=O)C=C[C@]5(C)[C@H]4[C@@H](O)C[C@]3(C)[C@]2(C(=O)CO)O1 [Flunisolide] | 1.8 h |  |
| CC1(C)O[C@@H]2C[C@H]3[C@@H]4C[C@H](F)C5=CC(=O)C=C[C@]5(C)[C@@]4(F)[C@@H](O)C[C@]3(C)[C@]2(C(=O)CO)O1 [Fluocinolone Acetonide] | 1.3 h |  |
| O=c1[nH]cc(F)c(=O)[nH]1 [Fluorouracil] | 0.166 h |  |
| CCN(CC)CCN1C(=O)CN=C(c2ccccc2F)c2cc(Cl)ccc21 [Flurazepam] | 2.3 h |  |
| CC(C(=O)O)c1ccc(-c2ccccc2)c(F)c1 (stereo not drawn) [Flurbiprofen] | 4.7 h |  |
| CC(C)n1c(/C=C/C(O)CC(O)CC(=O)O)c(-c2ccc(F)cc2)c2ccccc21 (stereo not drawn) [Fluvastatin, reference compound] | 3 h |  |
| O=C1NC(c2ccccc2)(c2ccccc2)C(=O)N1COP(=O)(O)O [Fosphenytoin] | 0.25 h |  |
| NCC1(CC(=O)O)CCCCC1 [Gabapentin] |  | ½ Life (in vivo): 5 h |
| O=[N+]([O-])[O-].O=[N+]([O-])[O-].O=[N+]([O-])[O-].[Ga+3] [Gallium nitrate] |  | ½ Life [2]: 1 h |
| O=C(O)CCCO [Gamma Hydroxybutyric Acid] |  | ½ Life [2]: 0.5 h |
| CC(=O)[C@H]1CC[C@H]2[C@@H]3CC[C@H]4C[C@](C)(O)CC[C@]4(C)[C@H]3CC[C@]12C [Ganaxolone] |  | ½ Life [2]: 1.3 h |
| Nc1ccn([C@@H]2O[C@H](CO)[C@@H](O)C2(F)F)c(=O)n1 [Gemcitabine] |  | ½ Life [2]: 0.7 h |
| Cc1ccc(C)c(OCCCC(C)(C)C(=O)O)c1 [Gemfibrozil, reference compound] |  | ½ Life [2]: 1.5 h; half-life (see Table 1): one and a half; minimum reported half-life (see Table 1): one and a half |
| CCC1=C(C)CN(C(=O)NCCc2ccc(S(=O)(=O)NC(=O)N[C@H]3CC[C@H](C)CC3)cc2)C1=O [Glimepiride] |  | ½ Life [2]: 5 h |
| Cc1cnc(C(=O)NCCc2ccc(S(=O)(=O)NC(=O)NC3CCCCC3)cc2)cn1 [Glipizide] |  | ½ Life [2]: 2 h |
| COc1ccc(Cl)cc1C(=O)NCCc1ccc(S(=O)(=O)NC(=O)NC2CCCCC2)cc1 [Glyburide] |  | ½ Life [2]: 1.4 h |
| COCCOc1cnc(NS(=O)(=O)c2ccccc2)nc1 [Glycodiazine] |  | ½ Life [2]: 4 h |
| C[N+]1(C)CCC(OC(=O)C(O)(c2ccccc2)C2CCCC2)C1 (stereo not drawn) [Glycopyrrolate] |  | ½ Life [2]: 0.6 h |
